Patent US12661348B2, “Systemic formulation of a pyridinone derivate for TG2-related diseases” (Dr. Falk Pharma GmbH, priority 2020, dated 2026)

Experiments:
[1] = Pharmacokinetic in healthy volunteers, multiple dosing over 7 days; format: in vivo, human; conditions: up to 100 mg
Procedure: The pharmacokinetic of (S,E)-methyl-7-(1-(2-(2-ethylbutylamino)-2-oxoethyl)-2-oxo-1,2-dihydro-pyridin-3-ylamino)-6-(1-methyl-1H-imidazole-5-carboxamido)-7-oxohept-2-enoate (compound of formula (I)) was investigated in healthy volunteers. Cohorts of 18 subjects each were treated with a daily dose of 10, 20, 50 and 100 mg compound of formula (I), respectively over a time period of 7 days. The determination of said compound in blood plasma was performed by means of a previously validated HPLC-MS/MS method.

[2] = test system: adult patients with Celiac Disease (CeD); assay: 6-week treatment of Celiac Disease patients under gluten challenge: ALT, AST, ALP levels; format: in vivo, human; conditions: for ALP, Change from baseline / ALT, Change from baseline / AST, Change from baseline / ALP, Difference versus placebo / ALT, Difference versus placebo / AST, Difference versus placebo: baseline to week 6; for Mean alanine aminotransferase (ALT) level, Baseline / Mean alkaline phosphatase (ALP) level, Baseline / Mean aspartate aminotransferase (AST) level, Baseline / Mean ALP level, Week 6 / Mean ALT level, Week 6 / Mean AST level, Week 6: safety population
Procedure: (§1) The efficacy and safety of a 6-week treatment with the compound of formula (I) in the hard gelatine capsule formulation described in example 2 was investigated in 160 adult patients with Celiac Disease (CeD). Patients, who were in clinical and histological remission at start of the study were challenged with 3 grams daily gluten intake and randomized to receive placebo or one of 3 doses of the compound of formula (I), i.e. 10 mg, 50 mg or 100 mg. Each morning after at least 6 hours of fasting, patients took the study drug orally, followed by one biscuit containing 3 g of gluten 30 minutes later, before breakfast. Throughout the 6-week study, patients were required to continue their strict gluten free diet.
as §1, with “described in the example 2” for “described in example 2”, “gluten free diet (see FIG. 12).” for “gluten free diet.”

[3] = test system: UUO-model in the C57BL/6-mouse; assay: Unilateral ureteral obstruction model (UUO-model) for nephritic fibrosis; format: in vivo; conditions: 100, 300, 1000 mg/kg body weight daily, oral suspension, two weeks
Source text: The anti-fibrotic effect of (S,E)-methyl-7-(1-(2-(2-ethylbutylamino)-2-oxoethyl)-2-oxo-1,2-dihydro-pyridin-3-ylamino)-6-(1-methyl-1H-imidazole-5-carboxamido)-7-oxohept-2-enoate (compound of formula (I)) in the kidney was investigated in an UUO-model in the C57BL/6-mouse. In a UUO-model, in one of the kidneys fibrosis is induced by ligation of one ureter. The other kidney remains functional. The pathophysiology of the UUO-model resembles the chronic nephropathy in humane (Chronic Kidney Disease, CKD).
Groups of 8 UUO-mice were treated directly after ligation of the ureter over a time period of two weeks with three different dosages of said compound: 100 mg/kg body weight, 300 mg/kg body weight, and 1000 mg/kg body weight. The daily dosage was administered orally as a suspension at intervals of 8 hours. In a control group, the UUO-mice were treated in same way but merely with the vehicle methyl cellulose. After the end of the treatment, the histopathological investigation of the kidney tissue as well as the determination of the amount of hydroxyproline in the kidney was performed. […]

[4] = test system: fibrotic liver or kidney diseases in human; assay: Correlation of the anti-fibrotic effect in the animal model with the human pharmacokinetic; format: in vivo; conditions: from fibrotic area versus Cmax or AUC
Procedure: A comparison of the systemic exposure (Cmax, AUC) of (5,E)-methyl-7-(1-(2-(2-ethylbutylamino)-2-oxoethyl)-2-oxo-1,2-dihydro-pyridin-3-ylamino)-6-(1-methyl-1H-imidazole-5-carboxamido)-7-oxohept-2-enoate in dosage effective in the animal experiments with the systemic exposition which is achieved in human allows an estimation of the potential effective dose range.
In addition, the Cmax or AUC being achieved in human by the dosage of 10, 20, and 50 mg compound of formula (I) is shown.

[5] = Saturation solubility, pH-range 1 to 6.8, HPLC/UV; format: physicochemical; conditions: pH=6.8 (small intestine) compared with pH~1
STAM-model and UUO-model = assay: Dose-activity-relationship in STAM-model and UUO-model; format: in vivo, C57BL/6-mouse
Source text: The reduction of the fibrotic area in the tissue in comparison to the untreated control animals can be considered as a measure for the anti-fibrotic effect of compound of formula (I) in STAM-model as well as in the UUO-model. For the STAM- and UUO-model the anti-fibrotic effect in dependence of the dose or in dependence of the exposure (Plasma Cmax or Plasma-AUC) are depicted in FIG. 5.

In the case of `CCC(CC)CNC(=O)Cn1cccc(NC(=O)[C@H](CC/C=C/C(=O)OC)NC(=O)c2cncn2C)c1=O` [compound of formula (I), (S,E)-methyl-7-(1-(2-(2-ethylbutylamino)-2-oxoethyl)-2-oxo-1,2-dihydro-pyridin-3-ylamino)-6-(1-methyl-1H-imidazole-5-carboxamido)-7-oxohept-2-enoate], the “systemic exposure in human versus dose” value [1] is reported as “increases linearly”, the “ALP, Change from baseline” value ([2]; 10 mg (N = 41)) is reported as −1.0 U/L and the “ALT, Change from baseline” value ([2]; 10 mg (N = 41)) is reported as −0.5 U/L. The “AST, Change from baseline” value ([2]; 10 mg (N = 41)) was 0 U/L, the “Mean alanine aminotransferase (ALT) level, Baseline” value (“Mean alanine aminotransferase” below) ([2]; 10 mg (N = 41)) was 20.5 U/L and the “Mean alkaline phosphatase (ALP) level, Baseline” value (“Mean alkaline phosphatase” for short) ([2]; 10 mg (N = 41)) was 60.0 U/L. For the same compound, the “Mean aspartate aminotransferase (AST) level, Baseline” value (from here on “Mean aspartate aminotransferase”) ([2]; 10 mg (N = 41)) was 22.5 U/L, the “Mean ALP level, Week 6” value ([2]; 10 mg (N = 41)) was 59.3 U/L and the “Mean ALT level, Week 6” value ([2]; 10 mg (N = 41)) was 20.0 U/L. For the same compound, the “Mean AST level, Week 6” value ([2]; 10 mg (N = 41)) was 22.5 U/L, the “Mean ALT level, Week 10 (Follow-up)” value ([2]; 10 mg (N = 41)) was 19.7 U/L and the “Mean AST level, Week 10 (Follow-up)” value ([2]; 10 mg (N = 41)) was 20.6 U/L. The “ALP, Difference versus placebo” value ([2]; 10 mg versus placebo) was −2.6 U/L, the “ALT, Difference versus placebo” value ([2]; 10 mg versus placebo, P value 0.0019) was −4.4 U/L and the “AST, Difference versus placebo” value ([2]; 10 mg versus placebo, P value 0.0448) was −3.2 U/L. The “ALP, Change from baseline” value ([2]; 50 mg (N = 41)) was −0.5 U/L, the “ALT, Change from baseline” value ([2]; 50 mg (N = 41)) was 0.8 U/L and the “AST, Change from baseline” value ([2]; 50 mg (N = 41)) was 1.0 U/L. For the same compound, the “Mean alanine aminotransferase” value ([2]; 50 mg (N = 41)) was 21.4 U/L, the “Mean alkaline phosphatase” value ([2]; 50 mg (N = 41)) was 57.8 U/L and the “Mean aspartate aminotransferase” value ([2]; 50 mg (N = 41)) was 22.6 U/L. The “Mean ALP level, Week 6” value ([2]; 50 mg (N = 41)) was 57.3 U/L, the “Mean ALT level, Week 6” value ([2]; 50 mg (N = 41)) was 22.2 U/L and the “Mean AST level, Week 6” value ([2]; 50 mg (N = 41)) was 23.6 U/L. For the same compound, the “Mean ALT level, Week 10 (Follow-up)” value ([2]; 50 mg (N = 41)) was 21.7 U/L, the “Mean AST level, Week 10 (Follow-up)” value ([2]; 50 mg (N = 41)) was 21.9 U/L and the “ALP, Difference versus placebo” value ([2]; 50 mg versus placebo) was −2.8 U/L. For the same compound, the “ALT, Difference versus placebo” value ([2]; 50 mg versus placebo, P value 0.0069) was −3.8 U/L, the “AST, Difference versus placebo” value ([2]; 50 mg versus placebo, P value 0.1423) was −2.2 U/L and the “ALP, Change from baseline” value ([2]; 100 mg (N = 40)) was −0.5 U/L. For the same compound, the “ALT, Change from baseline” value ([2]; 100 mg (N = 40)) was −2.6 U/L, the “AST, Change from baseline” value ([2]; 100 mg (N = 40)) was −0.4 U/L and the “Mean alanine aminotransferase” value ([2]; 100 mg (N = 40)) was 26.3 U/L. The “Mean alkaline phosphatase” value ([2]; 100 mg (N = 40)) was 62.7 U/L, the “Mean aspartate aminotransferase” value ([2]; 100 mg (N = 40)) was 26.8 U/L and the “Mean ALP level, Week 6” value ([2]; 100 mg (N = 40)) was 62.3 U/L. For the same compound, the “Mean ALT level, Week 6” value ([2]; 100 mg (N = 40)) was 23.7 U/L, the “Mean AST level, Week 6” value ([2]; 100 mg (N = 40)) was 26.5 U/L and the “Mean ALT level, Week 10 (Follow-up)” value ([2]; 100 mg (N = 40)) was 23.9 U/L. The “Mean AST level, Week 10 (Follow-up)” value ([2]; 100 mg (N = 40)) was 24.3 U/L, the “ALP, Difference versus placebo” value ([2]; 100 mg versus placebo) was −2.8 U/L and the “ALT, Difference versus placebo” value ([2]; 100 mg versus placebo, P value 0.0022) was −4.3 U/L. The “AST, Difference versus placebo” value ([2]; 100 mg versus placebo, P value 0.8551) was 0.3 U/L, the “elevation of alanine aminotransferase (ALT) from baseline to week 6” value ([2]; 10, 50, 100 mg groups, gluten challenge, elevation seen in placebo group) was “not observed” and the “difference between each drug group and placebo in ALT” value ([2]; P<0.01 for all comparisons) was “statistically significant”. The “levels of AST, ALT, total protein” value ([2]; oral, doses of 10, 50 and 100 mg in human) was “significantly reduced”, the “hydroxyproline content in the kidney” value [3] was “remained unaffected” and the “fibrotic area of the kidney” value ([3]; versus vehicle control) was “significant, marked, dosage dependent reduction”. For the same compound, the “human dosage at which the anti-fibrotic effect shown in the animal model can be achieved” value [4] was 20 mg, the saturation solubility [5] was “much lower” and the “anti-fibrotic effect in dependence of the exposure in plasma” value (STAM-model and UUO-model; Plasma Cmax or Plasma-AUC) was “almost linear correlation”. The “anti-fibrotic effect in STAM-model versus UUO-model” value (STAM-model and UUO-model; reduction of the fibrotic area versus control, liver and kidney) was “the same anti-fibrotic effect”.
